Measurements published in paper PMC6222329 (Molecules : A Journal of Synthetic Chemistry and Natural …, 2018).

Assays:
AChE (Human) = target: T1, AChE (Human) (Homo sapiens, UniProt P22303); experiment: AChE inhibition, Ellman's method; assay type: biochemical
T1 construct: purchased Sigma-Aldrich (Steinheim, Germany)
How it was run: (§1)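 Ellman's colorimetric assay run in two steps, with enzyme in 1% gelatin (2.5 units/mL) and reaction started with DTNB (10 mM) and substrate (75 mM), both stock concentrations.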

[1] = target: T2, AChE (Electrophorus electricus) (Electrophorus electricus, UniProt O42275); experiment: AChE inhibition, Ellman's method; assay type: biochemical
T2 construct: purchased Sigma-Aldrich (Steinheim, Germany)
T2 sequence (O42275 24-633): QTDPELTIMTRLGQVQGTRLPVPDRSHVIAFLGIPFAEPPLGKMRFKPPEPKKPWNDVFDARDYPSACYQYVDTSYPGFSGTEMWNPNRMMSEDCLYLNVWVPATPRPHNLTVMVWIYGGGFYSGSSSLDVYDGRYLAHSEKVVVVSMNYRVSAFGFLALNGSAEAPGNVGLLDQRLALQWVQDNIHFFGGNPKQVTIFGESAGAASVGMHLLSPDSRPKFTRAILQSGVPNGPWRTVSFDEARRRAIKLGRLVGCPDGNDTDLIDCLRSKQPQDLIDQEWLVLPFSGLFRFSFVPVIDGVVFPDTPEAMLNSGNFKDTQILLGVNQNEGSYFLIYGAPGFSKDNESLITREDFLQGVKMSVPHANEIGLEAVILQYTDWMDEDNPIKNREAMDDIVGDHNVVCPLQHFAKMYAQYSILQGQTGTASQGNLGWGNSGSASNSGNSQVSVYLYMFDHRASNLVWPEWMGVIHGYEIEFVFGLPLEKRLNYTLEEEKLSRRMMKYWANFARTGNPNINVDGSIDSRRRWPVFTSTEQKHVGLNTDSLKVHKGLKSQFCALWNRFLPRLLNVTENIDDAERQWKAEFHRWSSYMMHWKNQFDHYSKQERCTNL
How it was run: as §1

[2] = target: T3, human butyrylcholinesterase (BChE) (Homo sapiens, UniProt P06276); experiment: Enzyme kinetics of BChE inhibition (Lineweaver-Burk plots); assay type: biochemical
T3 construct: purchased Sigma-Aldrich (Steinheim, Germany)
T3 sequence (P06276 29-602): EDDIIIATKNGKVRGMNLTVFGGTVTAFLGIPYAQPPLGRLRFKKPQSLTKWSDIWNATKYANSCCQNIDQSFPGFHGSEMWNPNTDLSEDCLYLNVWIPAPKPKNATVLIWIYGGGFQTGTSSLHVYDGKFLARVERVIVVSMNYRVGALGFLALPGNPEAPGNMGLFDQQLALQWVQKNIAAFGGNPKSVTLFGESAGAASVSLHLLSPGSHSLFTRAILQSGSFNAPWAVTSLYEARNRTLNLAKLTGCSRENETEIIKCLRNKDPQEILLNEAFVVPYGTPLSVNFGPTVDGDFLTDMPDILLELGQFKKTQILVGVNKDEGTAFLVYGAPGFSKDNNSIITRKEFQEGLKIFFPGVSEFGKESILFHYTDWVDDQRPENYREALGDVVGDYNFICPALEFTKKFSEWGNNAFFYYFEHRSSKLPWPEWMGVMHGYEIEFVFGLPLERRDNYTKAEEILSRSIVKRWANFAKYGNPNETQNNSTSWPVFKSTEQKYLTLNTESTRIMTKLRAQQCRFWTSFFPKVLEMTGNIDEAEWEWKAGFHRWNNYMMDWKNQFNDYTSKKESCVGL
Excerpt: To recognize the inhibition type, enzyme kinetics studies were applied using Lineweaver–Burk plots. […]. […] This pattern also indicates a mixed-type inhibition.
The calculation of the inhibition constant (Ki) is an effective tool for measuring the affinity of an enzyme for […], and it is easily determined using the secondary plots of the Lineweaver–Burk equation. […].
In the kinetics studies, the assay protocol specified for the inhibition assay was identical. […]. Measurements were performed one of two ways, in the presence and in the absence of the inhibitor. […]. After addition of BChE (20 μL/well), the mixture was incubated under the same conditions as the activity assay. Then, the reaction was initiated by the addition of Ellman’s reagent (DTNB; 20 µL/well, 10 mM) and the substrate (10 µL/well, 75 mM). The absorbance was measured for 10 min at 412 nm. The enzyme solution was processed as a control. All readings were adjusted with blank-reading. The results were analyzed as Lineweaver–Burk plots using Microsoft Office Excel 2013 [15].

BChE (Human) = target: T4, BChE (Human) (Homo sapiens, UniProt P06276); experiment: BChE inhibition, Ellman's method; assay type: biochemical
T4 construct: purchased Sigma-Aldrich (Steinheim, Germany)
T4 sequence (P06276 29-602): as above
How it was run: as §1

MTT cell viability assay = assay type: cell-based, murine; details: mouse, NIH3T3 murine embryonic fibroblast cells, 0.000316 µM to 1000 µM, read-out: IC50 against NIH3T3
Method: The active compounds (4a, 4b, 4e, 4i, 4m, 4n, 4o, and 4t) were chosen to determine their cytotoxic activity toward a murine fibroblast healthy cell line (NIH3T3). After incubating the cells with active compounds at concentrations of 0.000316 µM to1000 µM for 24 h, the cell viability was measured using the 3-(4,5-dimethylthiazol-2-yl)-2,5-diphenyltetrazolium (MTT) assay. The inhibition percentage was calculated for each concentration of the test compounds. The IC50 values of the compounds were determined using a non-linear regression analysis over the calculated percentage inhibition values, and they are presented in Table 2. Accordingly, the cytotoxicity test proposed that the active derivatives were nontoxic against NIH3T3 cells at their active concentrations against BChE.
Healthy murine embryonic fibroblast cells (NIH3T3 cell line) were used for the cytotoxicity tests. The cell line and selected compounds were prepared for an MTT assay as reported previously. The optical densities (OD) of 96 well plates were recorded at 540 nm. […]

BChE (Equine) = target: T5, BChE (Equine) (Equus caballus, UniProt P81908); experiment: biochemical; assay type: biochemical
T5 construct: purchased Sigma-Aldrich (Steinheim, Germany)
T5 sequence (P81908 whole entry): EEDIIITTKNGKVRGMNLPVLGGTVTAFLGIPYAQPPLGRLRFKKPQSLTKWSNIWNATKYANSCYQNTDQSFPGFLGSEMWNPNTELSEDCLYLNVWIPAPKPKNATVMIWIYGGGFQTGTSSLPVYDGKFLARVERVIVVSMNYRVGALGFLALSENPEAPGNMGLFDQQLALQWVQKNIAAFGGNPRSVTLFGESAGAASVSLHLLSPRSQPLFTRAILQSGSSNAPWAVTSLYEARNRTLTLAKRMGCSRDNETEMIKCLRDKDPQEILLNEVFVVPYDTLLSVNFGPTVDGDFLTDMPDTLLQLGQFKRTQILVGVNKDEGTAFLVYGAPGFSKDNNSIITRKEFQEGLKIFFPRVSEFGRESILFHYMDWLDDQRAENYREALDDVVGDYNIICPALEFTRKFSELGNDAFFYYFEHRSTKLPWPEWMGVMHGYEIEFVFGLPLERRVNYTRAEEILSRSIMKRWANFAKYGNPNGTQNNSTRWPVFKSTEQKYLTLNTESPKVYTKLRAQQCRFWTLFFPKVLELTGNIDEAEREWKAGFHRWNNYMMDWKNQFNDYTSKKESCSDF
How it was run: as §1

[3] = read-out: AChE (Human) inhibitory activity (%) ± SD
[4] = read-out: AChE (Electrophorus electricus) inhibitory activity (%) ± SD
[5] = read-out: BChE (Human) inhibitory activity (%) ± SD

T1 sequence (P22303 32-614): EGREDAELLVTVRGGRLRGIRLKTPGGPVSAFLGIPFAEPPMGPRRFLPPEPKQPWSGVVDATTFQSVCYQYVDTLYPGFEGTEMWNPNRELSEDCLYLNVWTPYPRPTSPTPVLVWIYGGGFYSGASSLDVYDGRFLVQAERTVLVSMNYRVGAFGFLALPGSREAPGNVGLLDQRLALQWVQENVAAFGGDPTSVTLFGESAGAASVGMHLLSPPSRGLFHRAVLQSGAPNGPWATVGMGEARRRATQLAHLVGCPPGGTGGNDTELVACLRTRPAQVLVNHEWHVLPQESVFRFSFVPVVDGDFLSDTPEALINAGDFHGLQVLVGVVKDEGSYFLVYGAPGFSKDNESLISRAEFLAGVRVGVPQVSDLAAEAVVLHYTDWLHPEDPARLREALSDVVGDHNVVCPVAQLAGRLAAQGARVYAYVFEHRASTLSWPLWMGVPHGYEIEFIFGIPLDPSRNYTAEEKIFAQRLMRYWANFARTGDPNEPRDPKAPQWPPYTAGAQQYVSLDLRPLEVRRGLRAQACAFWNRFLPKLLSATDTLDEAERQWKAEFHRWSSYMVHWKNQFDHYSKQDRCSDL

O=C(CSC(=S)N1CCN(Cc2ccc(C(F)(F)F)cc2)CC1)Nc1c2ccccc2nc2ccccc12 [Compound 4n, 2-(9-Acridinylamino)-2-oxoethyl 4-(4-(trifluoromethyl)benzyl)piperazine-1-carbodithioate]
IC50 (AChE (Human)): 41.1 ± 1.69 µM | inhibition at 0.001 µM (AChE (Human); [3]): 3 ± 0.12% | inhibition at 0.01 µM (AChE (Human); [3]): 5.51 ± 0.17% | inhibition at 0.1 µM (AChE (Human); [3]): 9.18 ± 0.22% | inhibition at 1 µM (AChE (Human); [3]): 10.5 ± 0.37% | inhibition at 10 µM (AChE (Human); [3]): 18.5 ± 0.54% | inhibition at 100 µM (AChE (Human); [3]): 68.4% | inhibition at 1000 µM (AChE (Human); [3]): 83.3 ± 1.78% | IC50 [1]: 45.9 ± 1.58 µM | inhibition at 0.001 µM [1, 4]: 6.91 ± 0.27% | inhibition at 0.01 µM [1, 4]: 8.43 ± 0.38% | inhibition at 0.1 µM [1, 4]: 11.3 ± 0.61% | inhibition at 1 µM [1, 4]: 14.6 ± 0.76% | inhibition at 10 µM [1, 4]: 22.4 ± 0.8% | inhibition at 100 µM [1, 4]: 63.2% | inhibition at 1000 µM [1, 4]: 81 ± 2.65% | inhibition type of BChE ([2]; Lineweaver-Burk plot, inhibitor at IC50/2, IC50, 2 x IC50): mixed inhibition | Ki ([2]; secondary plot of Lineweaver-Burk, substrate BTCI, read-out: steady-state inhibition constant (Ki) against BChE): 0.0175 µM | IC50 (BChE (Human)): 0.014 ± 0.0005 µM | inhibition at 0.001 µM (BChE (Human); [5]): 37.2 ± 0.69% | inhibition at 0.01 µM (BChE (Human); [5]): 43.6 ± 0.84% | inhibition at 0.1 µM (BChE (Human); [5]): 50.5 ± 0.69% | inhibition at 1 µM (BChE (Human); [5]): 83.2 ± 1.07% | inhibition at 10 µM (BChE (Human); [5]): 93.7 ± 2.45% | inhibition at 100 µM (BChE (Human); [5]): 98.2% | inhibition at 1000 µM (BChE (Human); [5]): 99.3 ± 2.1% | IC50 at 24 h (MTT cell viability assay): > 1000 µM | IC50 (BChE (Equine)): 0.015 ± 0.0006 µM | inhibition at 1000 µM (BChE (Equine); 10^-3 M, read-out: BChE (Equine) inhibitory activity (%) ± SD): 99.5 ± 2.97% | inhibition at 100 µM (BChE (Equine); 10^-4 M, read-out: BChE (Equine) inhibitory activity (%) ± SD): 99% | inhibition at 10 µM (BChE (Equine); 10^-5 M, read-out: BChE (Equine) inhibitory activity (%) ± SD): 92.5 ± 2.86% | inhibition at 1 µM (BChE (Equine); 10^-6 M, read-out: BChE (Equine) inhibitory activity (%) ± SD): 81.3 ± 1.25% | inhibition at 0.1 µM (BChE (Equine); 10^-7 M, read-out: BChE (Equine) inhibitory activity (%) ± SD): 49.3 ± 0.58% | inhibition at 0.01 µM (BChE (Equine); 10^-8 M, read-out: BChE (Equine) inhibitory activity (%) ± SD): 43.7 ± 1.11% | inhibition at 0.001 µM (BChE (Equine); 10^-9 M, read-out: BChE (Equine) inhibitory activity (%) ± SD): 39.25 ± 0.22%
